The values below come from PubChem BioAssay (NCI).

Common to all, as to experiment: growth of human tumour cells (NCI), 48 h
The test system of experiment [1] is MCF7 breast.
Experiment [2] deals with SNB-75 CNS.
Experiment [3] has as its system MALME-3M melanoma.
Experiment [4] concerns UACC-62 melanoma.
The subject of experiment [5] is COLO 205 colon.
Experiment [6] deals with OVCAR-8 ovarian.
The subject of experiment [7] is CCRF-CEM leukemia.
Experiment [8] deals with DU-145 prostate.
Experiment [9] concerns HCT-116 colon.
Experiment [10] has as its system SN12C renal.

Each structure is given as a SMILES string.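 Dose response: 5 concentrations. Exposure: 48 h. Format: 96-well plates. Endpoint: linear interpolation; highest concentration if not reached. At the GI50, growth is halved. TGI: total growth inhibition.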 Bounds are passed on as bounds.

Take `CCN(CC)c1ccc(CNc2cc(C)nc3ccc(OC)cc23)cc1`: the GI50 in experiment [1] is 1.7 µM; in [2], 2.04 µM; in experiment [3] it was 1.8 µM; in experiment [4], 1.72 µM; in experiment [5], 1.31 µM; in experiment [6], 4.05 µM. The GI50 in experiment [7] was 2.78 µM; in [8], 6.17 µM; in experiment [9] it was 2.34 µM; in experiment [10] it was 5.33 µM. In addition, the TGI in experiment [1] was found to be 3.53 µM; in experiment [2], 5.05 µM; in [3] it was 3.43 µM; in experiment [4], 3.67 µM; in experiment [5], 2.76 µM; in experiment [6], 15.9 µM. Moreover, the TGI in experiment [7] worked out at 10.2 µM; in [8], 18.6 µM; in experiment [9], 7.76 µM; in experiment [10], 20.6 µM.
Take `O=C(CC(O)c1cccnc1)CC(O)c1cccnc1` (stereo not given): the TGI in experiment [1] amounted to 20 µM; in experiment [2], 35.4 µM; in [3], 39.9 µM; in experiment [4], 32.2 µM; in [5], 29 µM; in experiment [6], 35.7 µM. Besides, the TGI was 20.9 µM in experiment [7], > 89.7 µM in [8], 4.33 µM in experiment [9] and 38.8 µM in [10].
Regarding `Nc1nc(=O)c2[nH]cnc2n1O`, the TGI in [1], in [2], in [3], in experiment [4], in [5] and in experiment [6] was > 100 µM each time. Also, the TGI in [7], in [8], in experiment [9] and in [10] was > 100 µM throughout.
In the case of `COc1ccccc1CN=C1NC(=O)/C(=C/c2ccc3ncccc3c2)S1`, the GI50 was 5.4 µM in experiment [1]; 3.9 µM in experiment [2]; > 25 µM in experiment [3]; 8.61 µM in experiment [4]; 5.92 µM in experiment [5]; 8.17 µM in [6]. The GI50 in experiment [7] is 7.01 µM; in [8], 11 µM; in experiment [9], 3.1 µM; in experiment [10] it was 7.8 µM. Also, the TGI is > 25 µM in experiment [1]; > 25 µM in experiment [2]; > 25 µM in experiment [3]; > 25 µM in experiment [4]; > 24.1 µM in experiment [5]; > 25 µM in experiment [6]. For the same compound, the TGI in experiment [7], in experiment [8], in [9] and in experiment [10] was > 25 µM throughout.
Consider `C=C(c1ccc(OC)c(/C=C/C(=O)c2cc(OC)c(OC)c(OC)c2)c1)c1cc(OC)c(OC)c(OC)c1`, for which the GI50 in experiment [1] is 0.44 µM; in experiment [2] it was 0.892 µM; in experiment [3] it was 1.88 µM; in experiment [4], 0.498 µM; in [5] it was 2.03 µM; in experiment [6], 0.716 µM. Further, the GI50 in experiment [7] is 0.359 µM; in [8], 1.32 µM; in [9], 0.609 µM; in experiment [10], 1.87 µM. Moreover, the TGI in experiment [1] was 4.03 µM; in [2] it was 7.08 µM; in experiment [3], 4.45 µM; in experiment [4] it was 2.16 µM; in [5] it was 4.98 µM; in experiment [6] it was 11.9 µM. Also, the TGI in experiment [7] is > 100 µM; in experiment [8], 3.11 µM; in [9], 1.9 µM; in experiment [10], 9.55 µM.
As to `Cc1cc(NCCCNc2ccnc3cc(Cl)ccc23)nc(Nc2ccc(C(=O)N3CCCCC3)cc2)n1`, the GI50 in [1] was 1.82 µM; in [2] it was 1.69 µM; in experiment [3] it was 2.34 µM; in [4], 2.02 µM; in [5], 1.8 µM; in [6] it was 3.61 µM. Further, the GI50 in experiment [7] is 2.48 µM; in experiment [8], 3.42 µM; in experiment [9], 2.22 µM; in experiment [10] it was 2.33 µM. The TGI in [1] is 4.09 µM; in [2] it was 3.69 µM; in [3], 4.15 µM; in [4] it was 3.81 µM; in [5] it was 3.62 µM; in experiment [6], 12.4 µM. For the same compound, the TGI in [7] worked out at 8.4 µM; in experiment [8], 13.1 µM; in experiment [9], 5.83 µM; in experiment [10], 5.52 µM.
Turning to `Cc1ccc(C(=O)Nc2ccc(CN3CCN(C)CC3)c(C(F)(F)F)c2)cc1C#Cc1cnc(N)c2ccc(C#N)cc12`, the GI50 in [1] was 4.21 µM; in experiment [2], 0.0468 µM; in experiment [3], 0.0237 µM; in [4] it was 0.0212 µM; in [5], 0.28 µM; in experiment [6], 0.541 µM. Moreover, the GI50 was 0.807 µM in [7], 0.0403 µM in experiment [8], 0.167 µM in [9] and 0.0164 µM in experiment [10]. Further, the TGI in [1] is 29.6 µM; in experiment [2] it was 13.4 µM; in experiment [3], 0.694 µM; in experiment [4], 3.64 µM; in [5] it was > 46.5 µM; in [6], > 11.7 µM. The TGI in [7] came out at 18 µM; in [8], 7.39 µM; in experiment [9] it was 7.3 µM; in [10], 3.07 µM.
With `Nc1c(C(=O)c2cccc(C(O)(CO)CO)c2)cnn1-c1ccc(F)cc1`, the GI50 in [1], in experiment [2], in [3], in [4], in [5] and in experiment [6] was > 25 µM in each case. The GI50 in experiment [7], in experiment [8], in [9] and in experiment [10] was > 25 µM throughout. The TGI in [1], in experiment [2], in [3], in experiment [4], in [5] and in experiment [6] was > 25 µM in each case. The TGI in experiment [7], in [8], in [9] and in experiment [10] was > 25 µM throughout.
Take `COc1ccc(NC(=O)COc2ccccc2)c(C(N)=O)c1`: the GI50 in experiment [1] is 0.538 µM; in experiment [2], 0.398 µM; in experiment [3], 69 µM; in experiment [4] it was 1.18 µM; in [5], 0.505 µM; in experiment [6], 3.01 µM. Also, the GI50 in experiment [7] is 0.961 µM; in experiment [8], 2.31 µM; in [9] it was 0.588 µM; in [10] it was 5.53 µM. Besides, the TGI in experiment [1] was > 100 µM; in [2], 11.2 µM; in experiment [3], > 100 µM; in [4], > 81.2 µM; in experiment [5] it was 6.56 µM; in [6], > 100 µM. In addition, the TGI is > 100 µM in experiment [7], > 62.2 µM in experiment [8], > 100 µM in experiment [9] and > 100 µM in [10].
For `CC[C@]12C=CCN3CC[C@@]4(c5ccc(OC)cc5N(C)[C@H]4[C@@](O)(C(=O)OC)[C@@H]1OC(=O)CCCC[P+](c1ccccc1)(c1ccccc1)c1ccccc1)[C@@H]32`, the GI50 is 0.32 µM in experiment [1]; 0.357 µM in experiment [2]; 0.319 µM in experiment [3]; 0.374 µM in experiment [4]; 0.242 µM in experiment [5]; 2.23 µM in [6]. The GI50 in experiment [7] is 0.789 µM; in [8], 0.875 µM; in [9], 0.777 µM; in experiment [10], 0.414 µM. For the same compound, the TGI in experiment [1] was determined as 5.3 µM; in experiment [2], 2.08 µM; in experiment [3], 1.35 µM; in experiment [4], 1.54 µM; in [5] it was 0.586 µM; in experiment [6] it was 9.92 µM. For the same compound, the TGI in [7] came to 6.46 µM; in [8], 13.2 µM; in experiment [9], 12 µM; in experiment [10], 8.26 µM.
Regarding `COC1=CC(=O)c2c(O)c3c(c(O)c2C1=O)OC1(Oc2c(cc4cc(C)oc(=O)c4c2O)CC1O)C3O` (stereo not given), the TGI was > 100 µM in [1]; > 100 µM in [2]; 10.3 µM in [3]; > 100 µM in experiment [4]; > 100 µM in [5]; > 100 µM in experiment [6]. Besides, the TGI in [7] is > 100 µM; in experiment [8], > 100 µM; in experiment [9], > 100 µM; in [10], 49.3 µM.
Turning to `NNC(=O)C(O)C(O)C(O)CO` (stereo not given), the TGI in [1], in experiment [2], in experiment [3], in experiment [4], in experiment [5] and in experiment [6] was > 100 µM throughout. Besides, the TGI in experiment [7], in experiment [8], in experiment [9] and in experiment [10] was > 100 µM in each case.
`COc1ccc(C2CC(c3ccc4ccccc4c3)=NN2/C=C2\SC(=S)N(NC(=O)Cc3ccccc3Nc3c(Cl)cccc3Cl)C2=O)cc1` (stereo not given): the GI50 in experiment [1] was 0.361 µM; in [2] it was 0.257 µM; in experiment [3], 1.34 µM; in [4] it was 0.606 µM; in experiment [5], 1.89 µM; in experiment [6] it was 0.693 µM. Further, the GI50 in experiment [7] is 0.239 µM; in experiment [8] it was 0.404 µM; in [9] it was 0.482 µM; in [10], 0.647 µM. The TGI in experiment [1] is > 50.5 µM; in experiment [2] it was 1.4 µM; in [3] it was > 49 µM; in experiment [4], > 43.8 µM; in [5], > 100 µM; in experiment [6], > 100 µM. The TGI in [7] is > 100 µM; in experiment [8] it was 27.1 µM; in [9], > 39.6 µM; in [10], > 48.9 µM.
As for `Oc1ccccc1/C=N/Nc1nc2ccccc2s1`, the GI50 in experiment [1] is 1.16 µM; in [2], 6.55 µM; in [3], 30 µM; in [4] it was 8.97 µM; in experiment [5], 4.7 µM; in [6], 12 µM. Moreover, the GI50 is 4.37 µM in experiment [7], 9.35 µM in [8], 2.85 µM in [9] and 22.9 µM in experiment [10]. The TGI in experiment [1] was > 100 µM; in experiment [2] it was 32.2 µM; in [3], > 100 µM; in experiment [4], > 100 µM; in [5], > 100 µM; in experiment [6], > 100 µM. In addition, the TGI in experiment [7], in [8], in experiment [9] and in [10] was > 100 µM in each case.
On to `CN(C)c1ccc(/C=N/NC(=O)CSc2nc3sc4c(c3c(=O)n2-c2ccccc2)CCCCC4)cc1`, for which the GI50 was 4.7 µM in experiment [1]; 2.68 µM in experiment [2]; 3.45 µM in experiment [3]; 4.04 µM in experiment [4]; 4.14 µM in [5]; 4.83 µM in [6]. The GI50 in experiment [7] is 5.82 µM; in experiment [8], 3.41 µM; in [9], 3.96 µM; in experiment [10], 4.59 µM. The TGI in experiment [1] is > 100 µM; in [2] it was 14.6 µM; in [3], > 100 µM; in [4], > 100 µM; in experiment [5], > 100 µM; in experiment [6], > 100 µM. In addition, the TGI in experiment [7], in [8], in experiment [9] and in experiment [10] was > 100 µM each time.
As for `COc1cc(/C=C/C(=O)c2ccc(F)cc2)ccc1OCCCCOc1cc2c(cc1OC)C(=O)N1CCCC1C=N2` (stereo not given), the GI50 in [1] was 0.318 µM; in [2], 0.994 µM; in [3] it was 0.835 µM; in experiment [4], 0.777 µM; in [5], 2.11 µM; in experiment [6], 1.55 µM. Further, the GI50 in experiment [7] is 0.285 µM; in experiment [8], 0.994 µM; in [9], 0.618 µM; in [10] it was 1.68 µM. The TGI in experiment [1] is 6.12 µM; in experiment [2], 15 µM; in experiment [3] it was 18.3 µM; in experiment [4], 11.4 µM; in [5], 9.19 µM; in experiment [6], > 20.2 µM. The TGI in experiment [7] was determined as 1.88 µM; in [8] it was 5.46 µM; in experiment [9], 6.09 µM; in experiment [10], 15.9 µM.
